Data taken from EP4745153A1, “GLP-1, GIP AND GCG RECEPTOR […] USE THEREOF” (Jiangsu Hengrui Pharmaceuticals Co., Ltd., priority 2023, dated 2025).
Further: 5% FBS, 0.1% Casein.

What follows are compounds tested against T1, human GIPR (Homo sapiens, UniProt P48546) (assay: cAMP HTRF agonist activity assay in CHO-K1 cells expressing GIPR). Conditions: read-out: Activity against human GIPR (EC50 nM).
T1 construct: expressed in transfected cells; host or cells: CHO-K1 clonal cell line
T1 sequence (P48546 22-466): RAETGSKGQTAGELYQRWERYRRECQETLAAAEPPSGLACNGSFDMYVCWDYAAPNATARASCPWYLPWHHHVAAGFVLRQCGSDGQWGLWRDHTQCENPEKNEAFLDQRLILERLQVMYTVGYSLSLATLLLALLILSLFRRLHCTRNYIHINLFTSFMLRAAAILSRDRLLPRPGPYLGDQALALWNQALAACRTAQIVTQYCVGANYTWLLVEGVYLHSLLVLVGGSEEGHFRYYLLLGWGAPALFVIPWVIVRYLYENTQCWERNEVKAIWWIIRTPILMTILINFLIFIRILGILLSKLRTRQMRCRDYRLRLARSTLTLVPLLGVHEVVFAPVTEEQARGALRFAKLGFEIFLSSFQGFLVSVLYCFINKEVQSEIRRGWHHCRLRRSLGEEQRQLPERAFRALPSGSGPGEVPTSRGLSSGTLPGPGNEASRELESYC
Format: cell-based
Protocol: Functional activity was determined in CHO-K1 clonal cell lines expressing GIPR, GLP-1R, and GCGR. […] Each recipient cell (5000 cells/well) was added to an SV 96-well plate (Cisbio, 66PL96025) and incubated with the prepared polypeptide at 37°Cfor 30 min. The resulting increase in intracellular cAMP was quantitatively measured using the cAMP-GS dynamic HTRF assay kit (Cisbio, 62AM4PEJ). Briefly, the intracellular cAMP levels were determined by adding cAMP-d2 conjugate in cell lysis buffer, followed by the antibody anti-cAMP-Eu cryptate (also in cell lysis buffer).
Using the maximum response percentage vs. the added polypeptide concentration, the relative EC50 values were derived through nonlinear regression analysis and fitted to a four-parameter logarithmic equation. For specific data, refer to Tables 7-1 to 7-8 below. […]
`CC[C@H](C)[C@H](NC(=O)[C@H](CO)NC(=O)[C@H](Cc1ccc(O)cc1)NC(=O)[C@H](CC(=O)O)NC(=O)[C@H](CO)NC(=O)[C@@H](NC(=O)[C@H](Cc1ccccc1)NC(=O)[C@@H](NC(=O)CNC(=O)[C@H](Cc1c[nH]cn1)NC(=O)C(C)(C)NC(=O)[C@@H](N)Cc1c[nH]cn1)[C@@H](C)O)[C@@H](C)O)C(=O)N[C@@H](CC(C)C)C(=O)N[C@@H](CC(C)C)C(=O)N[C@@H](CCC(=O)O)C(=O)N[C@@H](CCCCNC(=O)COCCOCCNC(=O)COCCOCCNC(=O)CC[C@H](NC(=O)CCCCCCCCCCCCCCCCCCC(=O)O)C(=O)O)C(=O)N[C@@H](CCC(N)=O)C(=O)N[C@@H](C)C(=O)N[C@@H](C)C(=O)NC1(C(=O)N[C@@H](CCC(=O)O)C(=O)N[C@@H](Cc2ccccc2)C(=O)N[C@H](C(=O)N[C@@H](CCC(=O)O)C(=O)N[C@@H](Cc2c[nH]c3ccccc23)C(=O)N[C@@H](CC(C)C)C(=O)N[C@@H](CC(C)C)C(=O)N[C@@H](C)C(=O)N[C@H](CCC(=O)O)C(=O)NCC(=O)N2CCC[C@H]2C(=O)N[C@@H](CO)C(=O)N[C@@H](CO)C(=O)NCC(=O)N[C@@H](C)C(=O)N2CCC[C@H]2C(=O)N2CCC[C@H]2C(=O)N2CCC[C@H]2C(=O)N[C@@H](CO)C(N)=O)C(C)C)CC1` [Compound 0149] showed an EC50 of 0.004 nM. For `CC[C@H](C)[C@H](NC(=O)[C@H](CO)NC(=O)[C@H](Cc1ccc(O)cc1)NC(=O)[C@H](CC(=O)O)NC(=O)[C@H](CO)NC(=O)[C@@H](NC(=O)[C@H](Cc1ccccc1)NC(=O)[C@@H](NC(=O)CNC(=O)[C@H](Cc1c[nH]cn1)NC(=O)C(C)(C)NC(=O)[C@@H](N)Cc1c[nH]cn1)[C@@H](C)O)[C@@H](C)O)C(=O)N[C@@H](CC(C)C)C(=O)N[C@@H](CC(C)C)C(=O)N[C@@H](CCC(=O)O)C(=O)N[C@@H](CCCCNC(=O)COCCOCCNC(=O)COCCOCCNC(=O)CC[C@H](NC(=O)CCCCCCCCCCCCCCCCCCC(=O)O)C(=O)O)C(=O)N[C@@H](CCC(N)=O)C(=O)N[C@@H](C)C(=O)N[C@@H](C)C(=O)NC1(C(=O)N[C@@H](CCC(=O)O)C(=O)N[C@@H](Cc2ccccc2)C(=O)N[C@H](C(=O)N[C@@H](CCC(=O)O)C(=O)N[C@@H](Cc2c[nH]c3ccccc23)C(=O)N[C@@H](CC(C)C)C(=O)N[C@@H](CC(C)C)C(=O)N[C@@H](C)C(=O)N[C@H](CCC(=O)O)C(=O)NCC(=O)N2CCC[C@H]2C(=O)N[C@@H](CO)C(=O)N[C@@H](CO)C(=O)NCC(=O)N[C@@H](C)C(=O)N2CCC[C@H]2C(=O)N2CCC[C@H]2C(=O)N2CCC[C@H]2C(=O)N[C@@H](CO)C(N)=O)C(C)C)CCC1` [Compound 0150], the EC50 was 0.002 nM. `CC[C@H](C)[C@H](NC(=O)[C@H](CO)NC(=O)[C@H](CC(C)C)NC(=O)[C@H](CC(=O)O)NC(=O)[C@H](CO)NC(=O)[C@@H](NC(=O)[C@H](Cc1ccccc1)NC(=O)[C@@H](NC(=O)CNC(=O)[C@H](Cc1c[nH]cn1)NC(=O)C(C)(C)NC(=O)[C@@H](N)Cc1c[nH]cn1)[C@@H](C)O)[C@@H](C)O)C(=O)N[C@@H](CC(C)C)C(=O)N[C@@H](CC(C)C)C(=O)N[C@@H](CCC(=O)O)C(=O)N[C@@H](CCCCNC(=O)COCCOCCNC(=O)COCCOCCNC(=O)CC[C@H](NC(=O)CCCCCCCCCCCCCCCCCCC(=O)O)C(=O)O)C(=O)N[C@@H](CCCCN)C(=O)N[C@@H](C)C(=O)N[C@@H](C)C(=O)NC(C)(CC)C(=O)N[C@@H](CCC(=O)O)C(=O)N[C@@H](Cc1ccccc1)C(=O)N[C@H](C(=O)N[C@@H](CCC(=O)O)C(=O)N[C@@H](Cc1c[nH]c2ccccc12)C(=O)N[C@@H](CC(C)C)C(=O)N[C@@H](CC(C)C)C(=O)N[C@@H](C)C(=O)NCC(=O)NCC(=O)N1CCC[C@H]1C(=O)N[C@@H](CO)C(=O)N[C@@H](CO)C(=O)NCC(=O)N[C@@H](C)C(=O)N1CCC[C@H]1C(=O)N1CCC[C@H]1C(=O)N1CCC[C@H]1C(=O)N[C@@H](CO)C(N)=O)C(C)C` (stereo partly drawn) [Compound 0136] gave an EC50 of 0.001 nM.
